Assay [1] concerns the target T1, human MET kinase D1228H (Homo sapiens, UniProt P08581, D1228H).
T1 construct: GST-tagged recombinant human MET kinase domain; purchased Signal Chem
Put plainly: c-Met Enzyme Assay, D1228H mutant. In kind it is binding. Particulars: averaged IC50; D1228H 2 nM; 60-minute incubation at 22° C.; read-out: D1228 H IC50. The method, then: (§1) The affinity of compound binding to wild type and mutant human MET kinases was measured using Invitrogen's LanthaScreen™ Eu Kinase Binding technology. Briefly, GST-tagged recombinant human MET kinase domain from Signal Chem (see Table 8 below for concentration in assay) was incubated with 50 nM Alexa-Fluor® Tracer 236 (Invitrogen Cat No. PR9078A) and 2 nM Europium-anti-GST (Invitrogen Cat. No. A15116) along with test compound in a buffer consisting of 25 mM HEPES, pH 7.4, 10 mM MgCl2, 0.01% Triton X-100, 1mM DTT, and 2% DMSO. Compounds were typically prepared in a three-fold serial dilution in DMSO and added to the assay to give the appropriate final concentration. After a 60-minute incubation at 22° C., the reaction was measured using a PerkinElmer EnVision multimode plate reader via TR-FRET dual wavelength detection, and the percent of control (POC) calculated using a ratiometric emission factor. […] The POC values were fit to a 4 parameter logistic curve and the IC50 value is point where the curve crosses 50 POC.

The target of assay [2] is T2, His-tagged recombinant human MER cytoplasmic domain (Homo sapiens, UniProt Q12866).
T2 construct: His-tagged recombinant human MER cytoplasmic domain
T2 sequence (Q12866 527-999 limits assumed): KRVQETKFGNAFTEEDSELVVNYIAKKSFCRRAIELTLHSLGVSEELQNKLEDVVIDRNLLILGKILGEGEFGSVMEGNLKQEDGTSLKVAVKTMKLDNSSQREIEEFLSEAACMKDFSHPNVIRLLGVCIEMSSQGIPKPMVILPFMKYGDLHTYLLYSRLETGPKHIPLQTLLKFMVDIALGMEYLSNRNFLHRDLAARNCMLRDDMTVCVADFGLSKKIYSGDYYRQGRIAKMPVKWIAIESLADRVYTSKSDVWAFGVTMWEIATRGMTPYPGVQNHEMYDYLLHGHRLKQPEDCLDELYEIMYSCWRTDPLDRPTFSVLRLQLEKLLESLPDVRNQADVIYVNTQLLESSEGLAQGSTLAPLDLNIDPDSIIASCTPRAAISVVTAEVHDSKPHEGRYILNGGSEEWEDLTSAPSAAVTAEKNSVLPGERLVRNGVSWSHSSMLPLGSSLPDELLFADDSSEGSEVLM
In words: MER Enzyme Assay (LanthaScreen Eu Kinase Binding). Conditions: averaged IC50; MER 5 nM; 60-minute incubation at 22° C.; TR-FRET. The method, then:
(§2) Compounds disclosed herein were screened for their ability to inhibit […] kinase using Invitrogen's LanthaScreen™Eu Kinase Binding technology. His-tagged recombinant human MER cytoplasmic domain (5 nM) was incubated with 20 nM Alexa-Fluor® Tracer 236 (PR9078A), 2 nM biotinylated anti-His (Cat. No. M4408), and 2 nM europium-labeled Streptavidin (Cat. No. PV5899) along with test compound in a buffer consisting of 25 mM HEPES, pH 7.4, 10 mM MgCl 2, 0.01% Triton X-100, and 2% DMSO. Compounds were typically prepared in a threefold serial dilution in DMSO and added to the assay to give the appropriate final concentration. After a 60-minute incubation at 22° C., the reaction was measured using a PerkinElmer EnVision multimode plate reader via TR-FRET dual wavelength detection, and the percent of control (POC) was calculated using a ratiometric emission factor. […] The POC values are fit to a 4 parameter logistic curve and the IC50 value is point where the curve crosses 50 POC.

The target of assay [3] is T3, human MET kinase D1228N (Homo sapiens, UniProt P08581, D1228N).
T3 construct: GST-tagged recombinant human MET kinase domain; purchased Signal Chem
Put plainly: c-Met Enzyme Assay, D1228N mutant. In kind it is binding. Conditions: averaged IC50; D1228N 2 nM; 60-minute incubation at 22° C.; read-out: D1228 N IC50. The method, then: as §1

Assay [4] concerns the target T4, His-tagged recombinant human AXL cytoplasmic domain (Homo sapiens, UniProt P30530).
T4 construct: His-tagged recombinant human AXL cytoplasmic domain
T4 sequence (P30530 473-894 limits assumed): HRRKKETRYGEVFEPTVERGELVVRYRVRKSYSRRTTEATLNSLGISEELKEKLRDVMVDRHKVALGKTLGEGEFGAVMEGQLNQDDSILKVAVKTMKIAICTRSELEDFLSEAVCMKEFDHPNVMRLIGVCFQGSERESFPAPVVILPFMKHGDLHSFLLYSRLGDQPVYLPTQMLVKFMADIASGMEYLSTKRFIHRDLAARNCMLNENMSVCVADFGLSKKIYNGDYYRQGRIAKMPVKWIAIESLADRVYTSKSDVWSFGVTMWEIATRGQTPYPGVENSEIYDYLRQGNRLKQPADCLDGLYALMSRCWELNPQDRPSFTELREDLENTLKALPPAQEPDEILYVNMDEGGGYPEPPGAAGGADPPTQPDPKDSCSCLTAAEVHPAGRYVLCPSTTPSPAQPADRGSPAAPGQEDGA
In words: AXL Enzyme Assay (LanthaScreen Eu Kinase Binding). Particulars: averaged IC50; 60-minute incubation at 22° C.; TR-FRET. The procedure: as §2, with “AXL” for “MER”, “domain” for “domain (5 nM)”, “MgCl2,” for “MgCl 2,”
In general terms: TR-FRET usually uses a lanthanide donor and a delayed reading to cut background.

Molecules are shown by their SMILES.

T1 sequence (P08581 1078-1345 D1228H): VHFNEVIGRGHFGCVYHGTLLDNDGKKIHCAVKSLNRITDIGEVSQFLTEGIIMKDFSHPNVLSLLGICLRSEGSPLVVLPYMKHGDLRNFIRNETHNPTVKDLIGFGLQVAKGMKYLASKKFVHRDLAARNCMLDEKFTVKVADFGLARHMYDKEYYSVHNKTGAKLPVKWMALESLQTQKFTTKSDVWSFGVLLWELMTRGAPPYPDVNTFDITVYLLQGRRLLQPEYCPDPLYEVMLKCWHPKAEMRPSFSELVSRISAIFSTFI
T3 sequence (P08581 1078-1345 D1228N): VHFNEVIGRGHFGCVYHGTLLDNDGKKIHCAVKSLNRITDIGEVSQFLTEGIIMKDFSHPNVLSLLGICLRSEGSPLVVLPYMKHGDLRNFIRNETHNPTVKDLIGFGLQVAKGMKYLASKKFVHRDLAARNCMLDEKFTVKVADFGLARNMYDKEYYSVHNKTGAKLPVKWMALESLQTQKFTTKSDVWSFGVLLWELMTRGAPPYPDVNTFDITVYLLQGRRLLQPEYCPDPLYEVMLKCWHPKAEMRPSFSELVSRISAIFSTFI

A word on the IC50: it is the concentration that inhibits the measured activity by half. Take `COc1cc2nccc(Oc3ccc(NC(=O)c4cn(C(C)C)cc(-c5ccc(F)cc5F)c4=O)nc3)c2cc1OC` [Example 4]: the 50% inhibitory concentration (IC50) in assay [1] came out at 3.2 nM; in assay [2], 2 nM; in assay [3] it was 6.5 nM; in assay [4] it was 1 nM.
The corresponding values for `COc1cc(-c2cn(C(C)C)cc(C(=O)Nc3ccc(Oc4ccnc5cc(OC)c(OC)cc45)cn3)c2=O)ccc1F` [Example 20, N-(5-((6,7-dimethoxyquinolin-4yl)oxy)pyridin-2-yl)-5-(4-fluoro-3-methoxyphenyl)-1-isopropyl-4-oxo-1,4-dihydropyridine-3-carboxamide] are 9.9 nM, 3 nM, 10.4 nM and 3 nM.
The corresponding values for `COc1cc2nccc(Oc3ccc(NC(=O)c4cn(CC5CCOCC5)cc(-c5ccc(F)cc5)c4=O)nc3)c2cc1OC` [Example 8, N-(5-((6,7-dimethoxyquinolin-4-yl)oxy)pyridin-2-yl)-5-(4-fluorophenyl)-4-oxo-1-((tetrahydro-2H-pyran-4-yl)methyl)-1,4-dihydropyridine-3-carboxamide] are 7.2 nM, 4 nM, 10.7 nM and 2 nM.
For the compound `COc1ccc2nccc(Oc3ccc(NC(=O)c4cn(C)cc(-c5ccc(F)cc5)c4=O)nc3)c2c1` [Example 41, 5-(4-fluorophenyl)-N-(5-((6-methoxyquinolin-4yl)oxy)pyridin-2-yl)-1-methyl-4-oxo-1,4-dihydropyridine-3-carboxamide], the concentration for half-maximal inhibition (IC50) in assay [1] was determined as 258 nM; in assay [2], 33 nM; in assay [3], 646 nM; in assay [4], 5 nM.
The corresponding values for `COc1cc2nccc(Oc3ccc(NC(=O)c4cn(C(C)C)cc(-c5ccc(F)cc5C)c4=O)nc3)c2cc1OC` [Example 19, N-(5-((6,7-dimethoxyquinolin-4yl)oxy)pyridin-2-yl)-5-(4-fluoro-2-methylphenyl)-1-isopropyl-4-oxo-1,4-dihydropyridine-3-carboxamide] are 1.6 nM, 2 nM, 3.6 nM and 2 nM.
The corresponding values for `COc1cc2nccc(Oc3ccc(NC(=O)c4cn(CCN(C)C)cc(-c5ccc(Cl)cc5)c4=O)nc3)c2cc1OC` [Example 42] are 2.4 nM, 9 nM, 7 nM and 2 nM.
The like results for `COc1cc2c(Oc3ccc(NC(=O)c4cn(C(C)C)c(C)c(-c5ccc(F)cc5)c4=O)nc3)ccnc2cc1F` [Example 48, N-(5-((7-fluoro-6-methoxyquinolin-4yl)oxy)pyridin-2-yl)-5-(4-fluorophenyl)-1-isopropyl-6-methyl-4-oxo-1,4-dihydropyridine-3-carboxamide] were, in that order, 11.9 nM, 5 nM, 14.6 nM and 2 nM.
As to `COc1cc2nccc(Oc3ccc(NC(=O)c4cn(C5CCOCC5)cc(-c5ccc(F)cc5)c4=O)nc3)c2cc1OC` [Example 12, N-(5((6,7-dimethoxyquinolin-4-yl)oxy)pyridin-2-yl)-5-(4-fluorophenyl)-4-oxo-1-(tetrahydro-2H-pyran-4-yl)-1,4-dihydropyridine-3-carboxamide], the IC50 in assay [1] came to 8.4 nM; in assay [2], 4 nM; in assay [3], 9.7 nM; in assay [4] it was 2 nM.
With `COc1cc2nccc(Oc3ccc(NC(=O)c4cn(C(C)C)c(C)c(-c5ccc(F)cc5)c4=O)nc3)c2cc1OC` [Example 27, N-(5-((6,7-dimethoxyquinolin-4yl)oxy)pyridin-2-yl)-5-(4-fluorophenyl)-1-isopropyl-6-methyl-4-oxo-1,4-dihydropyridine-3-carboxamide], the 50% inhibitory concentration (IC50) in assay [1] was 1.1 nM; in assay [2], 2 nM; in assay [3] it was 2 nM; in assay [4] it was 1 nM.
Take `COc1ccc(-c2cn(C(C)C)cc(C(=O)Nc3ccc(Oc4ccnc5cc(OC)c(OC)cc45)cn3)c2=O)c(F)c1` [Example 31, N-(5-((6,7-dimethoxyquinolin-4yl)oxy)pyridin-2-yl)-5-(2-fluoro-4-methoxyphenyl)-1-isopropyl-4-oxo-1,4-dihydropyridine-3-carboxamide]: the 50% inhibitory concentration (IC50) in assay [1] was 55.7 nM; in assay [2], 5 nM; in assay [3] it was 62.7 nM; in assay [4], 1 nM.
The corresponding values for `COc1cc2nccc(Oc3ccc(NC(=O)c4cn(CC(=O)N5CCOCC5)cc(-c5ccc(F)cc5F)c4=O)nc3)c2cc1OC` [Example 15, 5-(2,4-difluorophenyl)-N-(5-((6,7-dimethoxyquinolin-4-yl)oxy)pyridin-2-yl)-1-(2-morpholino-2-oxoethyl)-4-oxo-1,4-dihydropyridine-3-carboxamide] are 99.1 nM, 29 nM, 73.7 nM and 2 nM.
The corresponding values for `COc1cc2nccc(Oc3ccc(NC(=O)c4cn(C(C)C)cc(-c5ccc(F)c(F)c5)c4=O)nc3)c2cc1OC` [Example 6] are 12.1 nM, 5 nM, 24.2 nM and 2 nM.
The like results for `CCc1c(-c2ccc(F)cc2)c(=O)c(C(=O)Nc2ccc(Oc3ccnc4cc(OC)c(OC)cc34)cn2)cn1C(C)C` [Example 29, N-(5-((6,7-dimethoxyquinolin-4yl)oxy)pyridin-2-yl)-6-ethyl-5-(4-fluorophenyl)-1-isopropyl-4-oxo-1,4-dihydropyridine-3-carboxamide] were, in that order, 2.4 nM, 3 nM, 3.1 nM and 1 nM.
On to `COc1cc2nccc(Oc3ccc(NC(=O)c4cn(CC(=O)N(C)C)cc(-c5ccc(Cl)cc5)c4=O)nc3)c2cc1OC` [Example 25], for which the 50% inhibitory concentration (IC50) came to 22.3 nM in assay [1], 5 nM in assay [2], 37.8 nM in assay [3] and 2 nM in assay [4].

The values are drawn from patent US20200216416A1, “QUINOLINE COMPOUNDS AS INHIBITORS OF TAM AND MET KINASES” (Array BioPharma Inc., priority 2019, published 2020).
